In article PMC6522510 (Nature Communications, 2019):
Where two headings read alike, the source gives them in different places.

Experiments:
U937 [1] = assay: Secondary dose-response HTS, Cell Titer Glo; format: cell-based, human; details: secondary high-throughput screen, U937; for EC50: read-out: average effective concentration, U937
CMS [2] = assay: Secondary dose-response HTS, Cell Titer Glo; format: cell-based, human; details: secondary high-throughput screen, CMS; for EC50: read-out: average effective concentration, CMS
M07e = assay: Secondary dose-response HTS, Cell Titer Glo; format: cell-based, human; details: secondary high-throughput screen; for EC50: read-out: average effective concentration, M07e
CHRF288-11 [3] = assay: Secondary dose-response HTS, Cell Titer Glo; format: cell-based, human; details: secondary high-throughput screen, CHRF288-11; for EC50: Homo sapiens, HTS, read-out: average effective concentration, CHRF288-11
CMK [4] = assay: Secondary dose-response HTS, Cell Titer Glo; format: cell-based, human; details: CMK; for EC50: read-out: average effective concentration, CMK
ML2 = assay: Secondary dose-response HTS, Cell Titer Glo; format: cell-based, human; details: secondary high-throughput screen, ML-2; for EC50: read-out: average effective concentration, ML-2
MV4-11 [5] = assay: Secondary dose-response HTS, Cell Titer Glo; format: cell-based, human; details: secondary high-throughput screen, MV4-11; for EC50: Homo sapiens, read-out: average effective concentration, MV4-11
MOLM-13 [6] = assay: cells; parameters: species or system AML cell lines (8); Secondary HTS, 10-point dose-response in triplicate, Cell Titer Glo viability, four-parameter fit EC50; details: Homo sapiens, MOLM-13, 72 h, read-out: MOLM-13
CMS [7] = assay: cells; parameters: species or system AML cell lines (8); Secondary HTS, 10-point dose-response in triplicate, Cell Titer Glo viability, four-parameter fit EC50; details: 72 h, read-out: CMS
MV4-11 [8] = assay: cells; parameters: species or system AML cell lines (8); Secondary HTS, 10-point dose-response in triplicate, Cell Titer Glo viability, four-parameter fit EC50; details: Homo sapiens, MV4-11, 72 h, read-out: MV4-11
MOLM-13 [9] = assay: Secondary dose-response HTS, Cell Titer Glo; format: cell-based, human; details: secondary high-throughput screen, MOLM-13; for EC50: Homo sapiens, read-out: average effective concentration, MOLM-13
U937 [10] = assay: cells; parameters: species or system AML cell lines (8); Secondary HTS, 10-point dose-response in triplicate, Cell Titer Glo viability, four-parameter fit EC50; details: Homo sapiens, U-937, 72 h, read-out: U937
CMK [11] = assay: cells; parameters: species or system AML cell lines (8); Secondary HTS, 10-point dose-response in triplicate, Cell Titer Glo viability, four-parameter fit EC50; details: Homo sapiens, CMK, 72 h, read-out: CMK
CHRF288-11 [12] = assay: cells; parameters: species or system AML cell lines (8); Secondary HTS, 10-point dose-response in triplicate, Cell Titer Glo viability, four-parameter fit EC50; details: 72 h, read-out: CHRF288-11
[13] = Homo sapiens, secondary high-throughput screen
[14] = secondary high-throughput screen

| EC50 (U937 [1]; Homo sapiens, U-937) [µM] | EC50 (MOLM-13 [9]) [µM] | Compound | EC50 (M07e; Homo sapiens, M-07e, M07e) [µM] | EC50 (CHRF288-11 [3]) [µM] | EC50 (ML2; Homo sapiens) [µM] | average effective concentration, CMS (CMS [2]) | average effective concentration, M07e (M07e; M07e) | EC50 (CMS [7]) [µM] | also measured |
| --- | --- | --- | --- | --- | --- | --- | --- | --- | --- |
| 0.68 |  | O=C(CCCCCN1C(=O)c2cccc3cccc(c23)C1=O)NO | 0.33 | 1.7 | 4.1 |  |  |  | EC50 (CMS [2]; Homo sapiens, HTS): 0.6 µM; EC50 (CMK [4]; [13]): 0.2 µM |
|  |  | O=c1[nH]c2ccccc2c2ccccc12 [6(5H)-PHENANTHRIDINONE] |  |  |  | Inactive | Inactive |  | average effective concentration, U937 (U937 [1]): Inactive; average effective concentration, CMK (CMK [4]; [14]): Inactive; average effective concentration, MV4-11 (MV4-11 [5]): Inactive |
|  |  | CC(C)(O)[C@@H]1CC[C@](C)([C@H]2[C@@H](O)C[C@@]3(C)[C@@H]4C[C@H](O[C@@H]5O[C@H](CO)[C@@H](O)[C@H](O)[C@H]5O)[C@H]5C(C)(C)[C@@H](O[C@@H]6OC[C@@H](O)[C@H](O)[C@H]6O)CC[C@@]56C[C@@]46CC[C@]23C)O1 [ASTRAGALOSIDE IV] |  |  |  | Inactive | Inactive |  | average effective concentration, U937 (U937 [1]): Inactive; average effective concentration, CMK (CMK [4]; [14]): Inactive; average effective concentration, MV4-11 (MV4-11 [5]): Inactive |
|  |  | C/C(=C\C(=O)Nc1ccccc1C(=O)O)c1ccc2ccccc2c1 [BIBR-1532] |  |  |  | Inactive | Inactive |  | average effective concentration, U937 (U937 [1]): Inactive; average effective concentration, CMK (CMK [4]; [14]): Inactive; average effective concentration, MV4-11 (MV4-11 [5]): Inactive |
| 3.6 |  | Cn1ncnc1[C@H]1c2n[nH]c(=O)c3cc(F)cc(c23)N[C@@H]1c1ccc(F)cc1 [BMN 673] | 9.2 | 0.074 | 0.079 |  |  | > 10 | EC50 (MOLM-13 [6]): > 10 µM; EC50 (CMK [4]; [13]): 0.21 µM; EC50 (MV4-11 [8]): > 10 µM |
| 3.8 | 2.7 | COc1cc(Nc2c(C#N)cnc3cc(OCCCN4CCN(C)CC4)c(OC)cc23)c(Cl)cc1Cl [BOSUTINIB] | 4.8 | 3.8 | 10 |  |  | > 10 | EC50 (CMK [4]; Homo sapiens): 1.1 µM; EC50 (MV4-11 [5]): 3.8 µM |
| 0.001 | 0.001 | O=C(/C=C/c1cccnc1)NCCCCC1CCN(C(=O)c2ccccc2)CC1 [DAPORINAD] | 0.001 | 0.012 | 0.001 |  |  | > 10 | EC50 (CMK [4]; [13]): 0.001 µM; EC50 (MV4-11 [5]): 0.001 µM |
|  |  | COC1=C2C[C@@H](C)C[C@H](OC)[C@H](O)[C@@H](C)/C=C(\C)[C@H](OC(N)=O)[C@@H](OC)/C=C\C=C(/C)C(=O)NC(=CC1=O)C2=O [GELDANOMYCIN] |  |  |  | Inactive | Inactive |  | average effective concentration, CHRF288-11 (CHRF288-11 [3]): Inactive; average effective concentration, CMK (CMK [4]; [14]): Inactive |
|  |  | COC(=O)[C@H](CC(C)C)NC(=O)c1ccc(NC[C@@H](N)CS)cc1-c1cccc2ccccc12 [GGTI 298] |  |  |  | Inactive | Inactive |  | average effective concentration, CHRF288-11 (CHRF288-11 [3]): Inactive; average effective concentration, CMK (CMK [4]; [14]): Inactive; average effective concentration, ML-2 (ML2): Inactive |
| 10 | 2.5 | CCc1c2c(nc3ccc(OC(=O)N4CCC(N5CCCCC5)CC4)cc13)-c1cc3c(c(=O)n1C2)COC(=O)[C@]3(O)CC [IRINOTECAN] | > 10 | 4.5 | 4 |  |  | > 10 | EC50 (MV4-11 [5]): 3.1 µM; EC50 (CMK [11]): > 10 µM |
|  |  | O=C(c1ccc(Cl)cc1Cl)n1nnc2ccccc21 [ITSA1] |  |  |  | Inactive | Inactive |  | average effective concentration, U937 (U937 [1]): Inactive; average effective concentration, CMK (CMK [4]; [14]): Inactive; average effective concentration, MV4-11 (MV4-11 [5]): Inactive |
|  |  | CCc1c(O)cc(O)c(C(=O)c2ccc(OCCN3CCOCC3)c(OC)c2)c1CC(=O)N(CCOC)CCOC.Cl [KW-2478] |  |  |  | Inactive | Inactive |  | average effective concentration, U937 (U937 [1]): Inactive |
| 6 | 0.007 | Cc1ccc(F)c(NC(=O)Nc2ccc(-c3cccc4[nH]nc(N)c34)cc2)c1 [LINIFANIB] | > 10 |  | > 10 |  |  | > 10 | EC50 (CHRF288-11 [12]): > 10 µM; EC50 (CMK [4]; Homo sapiens): 5.8 µM; EC50 (MV4-11 [5]): 0.003 µM |
| 3 | 1.5 | COc1c(C)c2c(c(O)c1C/C=C(\C)CCC(=O)OCCN1CCOCC1)C(=O)OC2 [MYCOPHENOLATE MOFETIL] | > 10 | 2.9 | 1.3 |  |  | > 10 | EC50 (CMK [4]; Homo sapiens): 7.5 µM; EC50 (MV4-11 [5]): 1.9 µM |
|  |  | Nc1ncnc2c1ncn2[C@@H]1C=C(CO)[C@@H](O)[C@H]1O [NEPLANOCIN A] |  |  |  | Inactive |  |  | average effective concentration, M07e (M07e; […]): Inactive; average effective concentration, MV4-11 (MV4-11 [5]): Inactive |
|  |  | Oc1cccc(-c2nc(N3CCOCC3)c3oc4ncccc4c3n2)c1 [PIK 103] |  |  |  | Inactive | Inactive |  | average effective concentration, CHRF288-11 (CHRF288-11 [3]): Inactive; average effective concentration, ML-2 (ML2): Inactive |
| 5.8 | 6 | O=C(CCCCCCC(=O)Nc1cccnc1)NO [PYROXAMIDE] | 8.2 |  | > 10 |  |  | > 10 | EC50 (CHRF288-11 [12]): > 10 µM; EC50 (MV4-11 [5]): 1.6 µM; EC50 (CMK [11]): > 10 µM |
| > 10 |  | C[S+]([O-])CCCCN=C=S (stereo not drawn) [SULFORAPHANE] | > 10 | > 10 | > 10 |  |  |  | EC50 (CMS [2]; Homo sapiens, HTS): > 10 µM |
|  |  | Cc1cc(C(C)Nc2ccccc2)c2nc(N3CCOCC3)cc(=O)n2c1 (stereo not drawn) [TGX-221] |  |  |  | Inactive | Inactive |  | average effective concentration, U937 (U937 [1]): Inactive; average effective concentration, CHRF288-11 (CHRF288-11 [3]): Inactive; average effective concentration, ML-2 (ML2): Inactive |
|  |  | N#Cc1ccc(COC[C@H]2O[C@@H](n3c(NCc4ccc(Cl)c(Cl)c4)nc4c(N)ncnc43)[C@H](O)[C@@H]2O)cc1 [VER-155008] |  |  |  |  | Inactive |  | average effective concentration, U937 (U937 [1]): Inactive; average effective concentration, CHRF288-11 (CHRF288-11 [3]): Inactive; average effective concentration, CMK (CMK [4]; [14]): Inactive; average effective concentration, MV4-11 (MV4-11 [5]): Inactive; average effective concentration, ML-2 (ML2): Inactive; average effective concentration, MOLM-13 (MOLM-13 [9]): Inactive |
|  |  | EVODIAMINE |  |  |  |  |  |  | EC50 (U937 [1]): 2.1 µM; EC50 (CMS [2]): 1.5 µM; EC50 (M07e; […]): 4.4 µM; EC50 (CMK [4]; [14]): 0.3 µM; EC50 (ML2): 0.45 µM |

| Compound | EC50 (U937 [1]; Homo sapiens, U-937) [µM] | EC50 (MOLM-13 [9]) [µM] | EC50 (M07e; Homo sapiens, M-07e, M07e) [µM] | EC50 (CHRF288-11 [3]) [µM] | EC50 (ML2; Homo sapiens) [µM] | average effective concentration, CMS (CMS [2]) | average effective concentration, M07e (M07e; M07e) | EC50 (CMS [7]) [µM] | also measured |
| --- | --- | --- | --- | --- | --- | --- | --- | --- | --- |
| C=C(C)[C@@H](CC=C(C)C)C[C@@]12C[C@@H](CC=C(C)C)C(C)(C)[C@@](CC=C(C)C)(C(=O)C(C(=O)c3ccc(O)c(O)c3)=C1O)C2=O [GARCINOL] |  | 5.1 |  | 5.8 | 5.4 |  |  | > 10 | EC50 (M07e; Homo sapiens, M-07e, […]): > 10 µM; EC50 (U937 [10]): > 10 µM; EC50 (MV4-11 [8]): > 10 µM; EC50 (CMK [11]): > 10 µM |
| N#CN=C(NCCCCCCOc1ccc(Cl)cc1)Nc1ccncc1 [GMX-1778] | 0.005 | 0.0036 |  | 0.00048 | 0.00035 |  |  | > 10 | EC50 (M07e; Homo sapiens, M-07e, […]): 0.00052 µM; EC50 (CMK [4]; [13]): 0.0056 µM; EC50 (MV4-11 [5]): 0.0011 µM |
| O=C(CCCCCCC(=O)Nc1ccc([C@H]2O[C@@H](CSc3nc(-c4ccccc4)c(-c4ccccc4)o3)C[C@@H](c3ccc(CO)cc3)O2)cc1)NO [TUBACIN] |  | > 10 |  | > 10 | > 10 |  |  | > 10 | EC50 (M07e; Homo sapiens, M-07e, […]): 2.5 µM; EC50 (U937 [10]): > 10 µM; EC50 (MV4-11 [8]): > 10 µM; EC50 (CMK [11]): > 10 µM |
